Reference: patent US20230257444A1, “FUSION PROTEIN AND COMBINATIONS THEREOF” (Agency for Science, Technology and Research, priority 2020, published 2023)

Tested on: SC5314 Candida albicans
Assay: In vitro co-culture CFU assay of human primary immune cells against Candida albicans
Format: cell-based
Settings: 1 hr; for fungicidal activity (CFU): absence or presence of hDectin1-Fc; for reduction in CFU: between hDectin1-Fc 0 μg/ml and 1000 µg/ml, 37° C.
Description: Macrophage assay: Human peripheral blood CD14+ monocytes were cultured at 1×10^6 cells/mL in 5 mL of ImmunoCult™-SF Macrophage Differentiation Medium with Human Recombinant M-CSF at 50 ng/ml in a T-25 flask at 37° C. in a 5% CO2 incubator. On Day 4, 2.5 mL of fresh ImmunoCult™-SF Macrophage Differentiation Medium was added to the flask. On Day 6, M1 activation was initiated with the addition of 50 ng/mL IFN-γ. On Day 8, the macrophages were treated with ACCUTASE and scrapped from the flask. The cells were centrifuged and resuspended in RPMI medium with 10% FBS and seeded into Eppendorf 96 well plates at 10^5 cells/well.
NK cell assay: Human Peripheral Blood CD56+NK Cells 1×10^6 cells/mL in 5 mL of ImmunoCult™-XF T Cell Expansion Medium with Human Recombinant IL-2 at 500 IU/ml in a T-25 flask at 37° C. in a 5% CO2 incubator for 7 days. Additional fresh media was added on day 4. The cells were centrifuged and resuspended in RPMI medium with 10% FBS and seeded into Eppendorf 96 well plates at 10^5 cells/well.
Monocyte assay: Human peripheral blood CD14+ Monocytes were cultured at 1×10^6 cells/mL in 5 mL of ImmunoCult™-SF Macrophage Differentiation Medium with Human Recombinant M-CSF at 10 ng/ml in a T-25 flask at 37° C. in a 5% CO2 incubator for 4 days. The cells were centrifuged and resuspended in RPMI medium with 10% FBS and seeded into Eppendorf 96 well plates at 10^5 cells/well.
Neutrophil assay: Human peripheral neutrophils were extracted from Human […] using EasySep™ Direct Human Neutrophil Isolation Kit as per manufacturer's protocol. The isolated neutrophils were centrifuged and resuspended in RPMI medium with 10% FBS and G-CSF and seeded into Eppendorf 96 well plates at 10^5 cells/well.
The co-culture CFU assay involves the addition of 10^5 cells/well of SC5314 Candida albicans cells to wells containing 10^5 cells/well of primary immune cells with final concentration of hDectin1-Fc at […] in a 96 well plate. The assay was incubated for 1 hr at 37° C. in a 5% CO2 atmosphere incubator. Samples were taken from each well at the end of the incubation and diluted accordingly before plating on YPD agar plates. The colonies were counted the following day. Each assay was done thrice and the average taken.
To evaluate the capability of the hDectin1-Fc fusion protein in enhancing immune cell anti-candida function, 10^5 human primary immune cells were co-cultured with 10^5 Candida albicans in a 1 hr long assay incubated at 37° C. with varying concentrations of hDectin1-Fc from […]. The surviving Candida cells were diluted and plated and the colony forming units (CFU) used as a measure of fungicidal activity (FIG. 12). […]

Substance: hDectin1-Fc: soluble dimeric fusion protein: human Dectin-1 receptor polypeptide (aa 73-247) fused to human IgG1 Fc via hinge; SEQ ID NO: 5
- fungicidal activity (CFU) (human NK cells): did not demonstrate any appreciable fungicidal activity
- fungicidal activity (CFU) (human monocytes): did not demonstrate any appreciable fungicidal activity
- reduction in CFU (human primary macrophages): ~50%
- reduction in CFU (human primary neutrophils): ~50%
